Experiments:
TrkB F616A = molecular target: T1, TrkB F616A (Mus musculus, UniProt P15209, F616A); assay: Neuroprotection against KA in TrkB F616A knockin mice with or without 1NMPP1; format: in vivo; details: for KA-induced caspase-3 activation in TrkB F616A mice: 5 mg/kg oral 4 h before KA 20 mg/kg; for KA-induced caspase-3 activation in TrkB F616A mice / TrkB F616A activation (phosphorylation) in knockin mice: without 1NMPP1; for protective effect against KA in F616A mice after 1NMPP1 pretreatment: 5 mg/kg oral 4 h before KA, 1NMPP1 in drinking water; for TrkB phosphorylation in F616A mice after 1NMPP1 pretreatment / TrkB F616A activation (phosphorylation) in knockin mice: 5 mg/kg oral
T1 construct: from tissue; host or cells: TrkB F616A knock-in mice (brain; whole animal in the forced swim test)
T1 sequence (P15209 32-821 F616A): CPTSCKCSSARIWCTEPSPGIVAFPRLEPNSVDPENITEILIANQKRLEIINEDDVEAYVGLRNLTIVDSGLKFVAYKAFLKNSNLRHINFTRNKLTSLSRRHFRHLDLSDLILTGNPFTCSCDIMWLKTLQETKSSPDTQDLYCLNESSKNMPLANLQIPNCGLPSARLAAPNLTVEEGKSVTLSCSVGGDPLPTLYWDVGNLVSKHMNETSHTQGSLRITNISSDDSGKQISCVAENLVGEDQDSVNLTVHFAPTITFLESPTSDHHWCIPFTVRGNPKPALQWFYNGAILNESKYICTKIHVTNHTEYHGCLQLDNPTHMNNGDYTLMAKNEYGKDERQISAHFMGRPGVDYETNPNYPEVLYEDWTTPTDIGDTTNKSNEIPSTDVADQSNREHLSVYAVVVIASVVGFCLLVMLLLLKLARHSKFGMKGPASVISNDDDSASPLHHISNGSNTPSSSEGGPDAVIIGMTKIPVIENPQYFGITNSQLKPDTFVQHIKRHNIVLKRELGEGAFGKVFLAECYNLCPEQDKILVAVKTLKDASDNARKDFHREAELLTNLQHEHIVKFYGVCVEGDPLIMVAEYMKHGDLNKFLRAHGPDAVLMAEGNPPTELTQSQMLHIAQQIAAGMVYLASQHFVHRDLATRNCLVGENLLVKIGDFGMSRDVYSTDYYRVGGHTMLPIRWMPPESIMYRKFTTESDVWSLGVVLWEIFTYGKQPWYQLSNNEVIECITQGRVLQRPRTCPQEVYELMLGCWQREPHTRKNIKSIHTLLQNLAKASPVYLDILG
Method: 4′-DMA-7,8-DHF and 7,8-DHF suppressed KA-induced caspase-3 activation in TrkB F616A mutant knockin mice, which cannot be blocked by 1NMPP1 (top panel).
TrkB F616A knockin mice (2-3 months old) were fed with 1NMPP1 (25 mM) in drinking water one day before pharmacological reagent treatment. Next day, the mice were orally injected with 7,8-DHF or 4′-DMA-7,8-DHF (5 mg/kg) 4 h before kainic acid (20 mg/kg). The control mice were injected with saline, 1NMPP1, kainic acid alone or administrated 7,8-DHF or 4′-DMA-7,8-DHF 4 h before kainic acid. In 4 days, the mice were sacrificed and brains were homogenated and ultracentrafuged. The supernatant ([…]) was employed for SDS-PAGE and immunoblotting analysis with indicated antibodies, respectively.

MAPK = MAPK phosphorylation in primary neurons (immunoblotting); format: cell-based, rat; details: 500 nM, time course
Method: Rat primary neurons were treated with 500 nM. 4′-DMA-7,8-DHF from various time points. The neuronal lysates were analyzed with various antibodies. 4′-DMA-7,8-DHF rapidly activated TrkB and its downstream signaling cascades (left panels). […] One mg/kg of 4′-DMA-7,8-DHF and 7,8-DHF were orally administrated into C57 BL/6J mice and TrkB phosphorylation and its downstream signaling cascades including Akt and MAPK in mouse brain were analyzed by immunoblotting at various time points. TrkB activation by 4′-DMA-7,8-DHF peaked at 4 h, whereas the maximal TrkB activation by 7,8-DHF in mouse brain occurred at 1-2 h (middle panels).
To compare the TrkB activation by these synthetic compounds, primary cortical cultures were prepared. Cortical neurons were treated with 500 nM of various compounds for 20 min and cell lysates were collected. […] Replacing the H-bond acceptor O atom with hydrogen bond donor NH abolishes its stimulatory effect. […] On the other hand, 7,8-DHF provoked TrkB activation with the minimal concentration of 100 nM (FIG. 2B, right panels). To further study 4′-DMA-7,8-DHF's kinetics on TrkB activation, primary neurons were treated for various time points. 4′-DMA-7,8-DHF swiftly activated TrkB as soon as 5 minutes following treatment. […] TrkB activation was monitored at different time points.

O=c1cc(-c2ccccc2)oc2c(O)c(O)ccc12 [7,8-DHF, 7,8-dihydroxyflavone, reference compound]
KA-induced caspase-3 activation in TrkB F616A mice (TrkB F616A): markedly diminished
protective effect against KA in F616A mice after 1NMPP1 pretreatment (TrkB F616A): abolished
TrkB phosphorylation in F616A mice after 1NMPP1 pretreatment (TrkB F616A): notably blocked by 1NMPP1 pretreatment
TrkB F616A activation (phosphorylation) in knockin mice (TrkB F616A): strongly activated

CN(C)c1ccc(-c2cc(=O)c3ccc(O)c(O)c3o2)cc1 [4′-DMA-7,8-DHF, 4′-dimethylamino-7,8-dihydroxyflavone]
KA-induced caspase-3 activation in TrkB F616A mice (TrkB F616A): markedly diminished
protective effect against KA in F616A mice after 1NMPP1 pretreatment (TrkB F616A): abolished
TrkB phosphorylation in F616A mice after 1NMPP1 pretreatment (TrkB F616A): notably blocked by 1NMPP1 pretreatment
TrkB F616A activation (phosphorylation) in knockin mice (TrkB F616A): strongly activated
time of peak MAPK phosphorylation (MAPK): 10 min

— patent US9504674B2, “TrkB agonists and methods of use” (EMORY UNIVERSITY, priority 2010, dated 2016)
